Data: US12414983B2, “CD200AR ligands for cancer immunotherapy” (REGENTS OF THE UNIVERSITY OF MINNESOTA, priority 2019, dated 2025)

Experiments:
Human CD14+ cells = test: Cytokine measurements in CD14+ cells pulsed with CD200AR-L peptide; format: cell-based; details: for IL-1β in supernatant / TNFα in supernatant: CD14+ cells pulsed with peptide, 48 h, compared with non-pulsed controls; for secretion of inflammatory cytokines from CD14+ cells: selection among 61 alanine-substituted peptides
Method: Cytokine measurements. Human CD14^+ cells (5×10^5) were isolated from peripheral blood mononuclear cells (PBMCs) using anti-CD14 beads (BD Biosciences, San Jose, CA), typically yielding ≥70% recovery and ≥90% purity. Cells were pulsed with 2 μM CD200AR-L peptide and incubated for 48 h, after which the supernatants were analyzed by bead array for cytokine production (BD Biosciences, San Jose, CA).

[1] = tested on: immature dendritic cells (iDCs) and autologous T-cells; test: CMV assay: iDCs pulsed with pp65 +/- peptide, then co-incubated with T-cells; format: cell-based, human; details: for antigen-specific response, production of IFNγ: pp65+CD200AR-L peptide compared with pp65 alone
Method: Dendritic cell differentiation. Cytomegalovirus (CMV)-positive HLA-A2^+ lymphocyte packs were obtained from the American Red Cross, and CD14^+ cells were purified. Approximately 1×10^8 CD14^+ cells were cultured in polystyrene tissue-culture flasks at 37° C. in 5% CO2. GM-CSF (25 ng/mL) and IL-4 (40 ng/mL) were both added on days 3 and 5 to derive immature dendritic cells (iDCs).
CMV assay. iDCs (5×10^5) were pulsed with 10 μg of CMV antigen peptide pp65495-503 (NLVPMVATV) and cultured as described above. The iDCs were then washed three times, and 5×10^5 CD8^+ T-cells from CMV-positive donors were co-incubated with the pulsed iDCs. CMV-negative PBMCs were used as a negative control. Supernatants were collected after 48 h of incubation and analyzed for IFNγ production by cytometric bead array (BD Biosciences).
To assess the effects of P1A8, P2A0, and P4A10 on the antigen-specific response, we measured IFNγ release in the following assay. iDCs were pulsed with the CMV antigen pp65 with and without an equimolar amount of P1A8, P2A0, or P4A10. Autologous T-cells were then added and incubated with the iDCs for 48 h, after which IFNγ production was measured in the supernatants. Exposure to pp65 increased T-cell IFNγ production approximately 4-fold (FIG. 4c). Co-treatment of iDCs with pp65 and P1A8, P2A0, or P4A10 increased IFNγ release by an additional 2- to 3-fold over pp65 alone.

CD14+ cells [2] = test: Dendritic cell maturation: phenotyping for CD80, CD86, HLA-DR; format: cell-based, human; details: peptide alone compared with GM-CSF+IL4, p<0.0001
Method: FIGS. 4A-4D. Targeting CD200 activation receptors enhances dendritic cell maturation. (FIGS. 4A, 4B) CD14 purified cells were pulsed with (FIG. 4A) GM-CSF+IL4 or equal molar ratios of peptides P1A8, P2A0, or P4A10 or (FIG. 4B) GM-CSF+IL4 plus equal molar ratios of peptides P1A8, P2A0, or P4A10 and incubated for 48 h. Cells were harvested and phenotyped for CD80, CD86, and HLA-DR. (FIG. 4C) Immature dendritic cells from donors with or without CMV were pulsed with the CMV antigen pp65+/−equal molar ratios of peptides P1A8, P2A0, or P4A10. Cells were washed, and autologous T-cells were added back and incubated for a further 48 h. Supernatants were analyzed for IFNγ production. (FIG. 4D) Immature dendritic cells were pulsed with the CMV antigen pp65+/−P4A10. After the cells were washed, autologous T-cells were added back and incubated for a further 48 h. Supernatants were analyzed for IFNγ, IL-6, TNFα and RANTES content. Error bars represent standard deviation (n=3 healthy donors/group, *P<0.05, **P<0.005, ***P<0.0005 by t-test). The data represent three separate healthy donors. Black bars represent CMV-negative donors.
Targeting CD200 activation receptors enhances dendritic cell maturation. TNF-regulated cytokines (Table 1) have been implicated in dendritic cell maturation. […] To substantiate this, CD14^+ cells were isolated from healthy human donors and pulsed with GM-CSF+IL4, P1A8, P2A0, or P4A10 27. Cells pulsed with P1A8, P2A0, and P4A10 expressed higher levels of the co-stimulatory molecules CD80, CD86, and HLA-DR than cells treated with GM-CSF+IL4 (p<0.0001; FIG. 4a). Moreover, we observed synergistic upregulation of CD80/86 and HLA-DR when CD14^+ cells were incubated with GM-CSF+IL4 and each of the peptides (p<0.0001) (FIG. 4b).

CD14+ cells [3] = test: RNAseq / NanoString gene expression analysis of pulsed CD14+ cells; format: cell-based, human; details: for mRNA expression of TNF-regulated cytokines: NanoString platform, FIG. 3b; for mRNA expression of cytokines released in response to TNF signaling: RNAseq, CD14+ cells
Source text: Nanostring gene expression analysis: Total RNA from CD14^+ cells was sent to New Zealand Genomics Limited (Dunedin, New Zealand) to measure the expression of genes that are differentially expressed during inflammation (nCounter GX, NanoString Technologies, Seattle, WA, USA). Briefly, total RNA was extracted from CD14^+ cells (MagJET RNA kit, Thermo Fisher Scientific, Waltham, MA) using the protocol adapted for tissue (KingFisher Duo machine, Thermo Fisher Scientific, Waltham, MA). RNA samples were then quantified (Qubit® 2.0 fluorometer, Thermo Fisher Scientific) and subjected to RNA integrity analysis (2100 Bioanalyzer, Agilent Technologies, Santa Clara, CA). Probes for the genes encoding CD44 (NM_001001392.1); NANOG (NM_024865.2); OCT4 (NM_002701.4); STAT3 (NM_139276.2); and the housekeeping genes glucuronidase beta (NM_000181.1), clathrin heavy chain (NM 4859.2), and hypoxanthine phosphoribosyltransferase 1 (NM_000194.1) were designed and manufactured by NanoString Technologies.
Expression data obtained with NanoString GX were analyzed by using nSolver Analysis Software 3.0 (nanostring.com/products/nSolver) with default settings, and normalized to housekeeping genes. nSolver was used to perform cluster analysis and to generate heat maps by using Java Treeview Version 1.1.6r4. Pathway analysis was performed by using the PathCards Pathway Unification Database (pathcards.genecards.org). Student's t-tests were used to determine significant differences (p<0.05).

T-lymphocytes = test: P4A10 priming prior to antigen presentation, CD200R1 expression; format: cell-based; details: not observed in mock-treated cells, FIG. 7d
Source text: The efficacy of the P4A10+autologous tumor lysate strategy in this context creates an interesting conundrum. The T-cells that respond to APC presentation following stimulation express the inhibitory CD200R129. The immune-stimulatory effects of these primed T-cells, therefore, are expected to be blunted upon entry into a glioblastoma microenvironment that is replete with soluble and tumor-expressed CD200. […] Such suppression was not observed in mock-treated cells. Similar downregulation of PD-1 was observed on APCs (p=0.005, FIG. 7c).

Splenocytes = Splenocytes pulsed with CD200 or PD-L1 +/- mCD200AR-L, flow cytometry for CTLA4 and PD-L1; format: cell-based; details: splenocytes pulsed with CD200 or PD-L1
Method: FIGS. 14A-14C. […] Splenocytes were pulsed with CD200, PD-L1+/−mCD200AR-L. Cells were analyzed by flow cytometry for the (FIG. 14A) CD4^+CTLA4^+, (FIG. 14B) CD8^+CTLA4^+or (FIG. 14C) CD11b^+PD-L1^+ populations. Error bars are representative of n=2 *P<0.005, **P<0.0001.
We propose that soluble CD200 and PD-L1 inhibit T cell activation through multiple checkpoints (FIG. 10). Therefore, the effect of multiple suppressive molecules (CD200 and PD-L1) on T cell inhibition was investigated. […] In addition, following PD-L1 treatment, an upregulation of PD-L1 on CD11b and an upregulation of CTLA4 was observed on T cells. Being CTLA4 and PD-L1 propagate separate inhibitory signals, it was hypothesized that PD-L1 inhibits T cell activation through 1) direct CD200 and PD-L1 on T cells and 2) direct PD-L1 (on APCs)/PD-I (on […]) producing cytokines upregulating CTLA4, which would explain the enhanced responses seen in combination α-PD-1 and α-CTLA4 treatments. However, neither of them inhibit CD200 effect on T cells.
We next looked at the effects of CD200AR-L on T cell inhibition. […] Being CTLA4 and PD-L1 propagate separate inhibitory signals, we hypothesize that PD-L1 inhibits T cell activation through two separate mechanisms, 1) through direct PD-L1 (on APCs)/PD-I (on T cells) interactions and through cytokine production following PD-L1 binding to the PD-1 on CD11b cell, which would explain the enhanced responses seen in combination α-PD-1 and α-CTLA4 treatments.

Molecule	IL-1β in supernatant (Human CD14+ cells)	TNFα in supernatant (Human CD14+ cells)	antigen-specific response, production of IFNγ [1]	secretion of inflammatory cytokines from CD14+ cells (Human CD14+ cells)	also measured
VTFSENHGVVIQPAY (Ac-VTFSENHGVVIQPAY-NH2; listed as Homo sapiens) [P3]	statistically significant increases	statistically significant increases	significant antigen-specific response	–	–
NLVPMVATV [pp65, CMV antigen peptide pp65495-503, reference compound]	–	–	–	–	increase of T-cell IFNγ production ([1]; exposure to pp65 alone, FIG. 4c): approximately 4 fold
NITLADEGCYMCLFN (Ac-NITLADEGCYMCLFN-NH2; cysteine pairing not given here; listed as Homo sapiens) [P2A5]	–	–	–	maximally stimulated	–
IVTWQKKKAVSPENM (Ac-IVTWQKKKAVSPENM-NH2; listed as Homo sapiens) [P1]	statistically significant increases	statistically significant increases	significant antigen-specific response	–	–
VTFSENHGVVIAPAY (Ac-VTFSENHGVVIAPAY-NH2; listed as Homo sapiens) [P3A12]	–	–	–	maximally stimulated	–
NITLEDEGCYMCLFN (Ac-NITLEDEGCYMCLFN-NH2; cysteine pairing not given here; listed as Homo sapiens) [P2]	statistically significant increases	statistically significant increases	significant antigen-specific response	–	–
NITLEDEGCYMCLFN (Ac-NITLEDEGCYMCLFN-NH2; cysteine pairing not given here; listed as Homo sapiens) [P2A0]	–	–	–	maximally stimulated	levels of co-stimulatory molecules CD80, CD86, and HLA-DR (CD14+ cells [2]): higher levels; mRNA expression of TNF-regulated cytokines (CD14+ cells [3]): most potently and consistently induced; mRNA expression of cytokines released in response to TNF signaling (CD14+ cells [3]): notable increase
CLFNTFGFGAISGTA (Ac-CLFNTFGFGAISGTA-NH2; listed as Homo sapiens) [P4A10]	–	–	–	maximally stimulated	levels of co-stimulatory molecules CD80, CD86, and HLA-DR (CD14+ cells [2]): higher levels; mRNA expression of TNF-regulated cytokines (CD14+ cells [3]): most potently and consistently induced; mRNA expression of cytokines released in response to TNF signaling (CD14+ cells [3]): notable increase; CD200R1 expression (T-lymphocytes): suppressed
CLFNTFGFGKISGTA (Ac-CLFNTFGFGKISGTA-NH2; listed as Homo sapiens) [P4]	statistically significant increases	statistically significant increases	significant antigen-specific response	–	–
CD200: CD200 immune checkpoint protein used to pulse splenocytes (protein, UniProt O54901 31-278, looked up) OX-2 membrane glycoprotein: QVEVVTQDERKALHTTASLRCSLKTSQEPLIVTWQKKKAVSPENMVTYSKTHGVVIQPAYKDRINVTELGLWNSSITFWNTTLEDEGCYMCLFNTFGSQKVSGTACLTLYVQPIVHLHYNYFEDHLNITCSATARPAPAISWKGTGTGIENSTESHFHSNGTTSVTSILRVKDPKTQVGKEVICQVLYLGNVIDYKQSLDKGFWFSVPLLLSIVSLVILLVLISILLYWKRHRNQERGESSQGMQRMK	–	–	–	–	CTLA4 on CD4 cells (Splenocytes): upregulation; CTLA4 on CD8 cells (Splenocytes): not on CD8 cells
